Laboratory results taken from the supplement of paper PMC10627819.
≈ marks a conversion by molar mass, not a printed value.

Tests used:
S. aureus DSM 20231 [1] = experiment: fitness (endpoint OD595 vs no drug) (fraction); higher = more growth
Method in brief: (§1)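 Growth medium was TSB, LB Lennox or CY, and plates were kept at 37 °C. Inoculation was at OD595 0.01 in 384-well plates, at 30 µl per well or 55 µl for S. pneumoniae. OD595 was monitored every 30 min for 14 h and background-subtracted using the first reading. Fitness is the optical density on entering stationary phase divided by the robust mean of no-drug controls, with values capped at 1.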

S. aureus Newman [2] = experiment: as above
Method in brief: as §1

B. subtilis 168 [3] = experiment: as above
Method in brief: as §1

S. pneumoniae D39V [4] = experiment: as above
Method in brief: as §1

S. aureus DSM 20231 [5] = experiment: Bliss interaction score (quartile over a dose matrix) (fitness difference); higher = more antagonism (negative = synergy)
Method in brief: (§2)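 Fitness here means normalised growth, inferred for single drugs from the combination data. Growth was OD595 at entry into stationary phase, divided by the plate's robust no-drug mean and capped at 1. The Bliss score is observed minus expected fitness, with the expectation being the product, and its quartiles span technical, biological and donor/recipient replicates.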

S. aureus Newman [6] = experiment: as above
Method in brief: as §2

B. subtilis 168 [7] = experiment: as above
Method in brief: as §2

S. pneumoniae D39V [8] = experiment: as above
Method in brief: as §2

S. aureus DSM 20231 [9] = test system: S. aureus DSM 20231
S. aureus Newman [10] = test system: S. aureus Newman
S. pneumoniae D39V [11] = test system: S. pneumoniae D39V
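Throughout, for Bliss interaction score (quartile over a dose matrix): first quartile when negative (synergy) and third quartile when positive (antagonism).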

CCCCCCCCCC(=O)N[C@@H](Cc1c[nH]c2ccccc12)C(=O)N[C@H](CC(N)=O)C(=O)N[C@@H](CC(=O)O)C(=O)N[C@@H]1C(=O)NCC(=O)N[C@@H](CCCN)C(=O)N[C@@H](CC(=O)O)C(=O)N[C@H](C)C(=O)N[C@@H](CC(=O)O)C(=O)NCC(=O)N[C@H](CO)C(=O)N[C@@H]([C@H](C)CC(=O)O)C(=O)N[C@@H](CC(=O)c2ccccc2N)C(=O)O[C@@H]1C [Daptomycin] + CN(N=O)C(=O)N[C@@H](C=O)[C@@H](O)[C@H](O)[C@H](O)CO [Streptozotocin]
fitness, one replicate
Details | partner 0.15 µg/mL | partner 0.3 µg/mL | partner 0.6 µg/mL
B. subtilis 168 [3], first compound 0.125 µg/mL | 0.889 | 0.968 | 0.935
B. subtilis 168 [3], first compound 1 µg/mL | 0.658 | 0.674 | 0.669
S. aureus DSM 20231 [1], first compound 0.125 µg/mL | 0.795 | 0.761 | 0.645
S. aureus DSM 20231 [1], first compound 0.25 µg/mL | 0.883 | 0.764 | 0.656

fitness
Details | partner 0.15 µg/mL | partner 0.3 µg/mL | partner 0.6 µg/mL | partner 1.2 µg/mL | partner 2.4 µg/mL | partner 4.8 µg/mL
B. subtilis 168 [3], first compound 0.25 µg/mL | 0.89 | 0.914 | 0.969 | – | – | –
B. subtilis 168 [3], first compound 0.5 µg/mL | 0.835 | 0.761 | 0.768 | – | – | –
S. aureus DSM 20231 [1], first compound 0.5 µg/mL | 0.817 | 0.778 | 0.732 | – | – | –
S. aureus DSM 20231 [1], first compound 1 µg/mL | 0.93 | 0.799 | 0.744 | – | – | –
S. aureus DSM 20231 [1], first compound 2 µg/mL | 0.871 | 0.818 | 0.748 | – | – | –
S. aureus Newman [2], first compound 0.125 µg/mL | 0.945 | 0.805 | 0.636 | – | – | –
S. aureus Newman [2], first compound 0.25 µg/mL | 0.957 | 0.855 | 0.594 | – | – | –
S. aureus Newman [2], first compound 0.5 µg/mL | 0.969 | 0.807 | 0.627 | – | – | –
S. pneumoniae D39V [4], first compound 1 µg/mL | – | – | – | 0.94 | 0.939 | 0.918
S. pneumoniae D39V [4], first compound 2 µg/mL | – | – | – | 0.935 | 0.95 | 0.884
S. pneumoniae D39V [4], first compound 4 µg/mL | – | – | – | 0.968 | 0.942 | 0.923

Details | Bliss interaction score
B. subtilis 168 [7] | -0.0562
S. aureus DSM 20231 [5] | 0.0436
S. aureus Newman [6] | 0.0468
S. pneumoniae D39V [8] | 0.0898

CC1(C)S[C@@H]2[C@H](NC(=O)[C@H](N)c3ccc(O)cc3)C(=O)N2[C@H]1C(=O)O [Amoxicillin]
fitness
Details | 0.0008 µg/mL | 0.0015 µg/mL | 0.003 µg/mL | 0.0625 µg/mL | 0.125 µg/mL | 0.25 µg/mL | 0.5 µg/mL
S. aureus DSM 20231 [1] | – | – | – | 0.606 | 0.504 | 0.0502 | 0.0082
S. aureus Newman [2] | – | – | – | 0.896 | 0.878 | 0.85 | 0.865
S. pneumoniae D39V [4] | 0.972 | 0.945 | 0.923 | – | – | – | –

Details | MIC
S. aureus DSM 20231 [9] | 0.556 µg/mL (≈ 1.52 µM)
S. aureus Newman [10] | 0.25 µg/mL (≈ 0.684 µM)
S. pneumoniae D39V [11] | 4 ng/mL (≈ 0.0109 µM)

CCCCCCCCCC(=O)N[C@@H](Cc1c[nH]c2ccccc12)C(=O)N[C@H](CC(N)=O)C(=O)N[C@@H](CC(=O)O)C(=O)N[C@@H]1C(=O)NCC(=O)N[C@@H](CCCN)C(=O)N[C@@H](CC(=O)O)C(=O)N[C@H](C)C(=O)N[C@@H](CC(=O)O)C(=O)NCC(=O)N[C@H](CO)C(=O)N[C@@H]([C@H](C)CC(=O)O)C(=O)N[C@@H](CC(=O)c2ccccc2N)C(=O)O[C@@H]1C [Daptomycin] + Cc1cc(NS(=O)(=O)c2ccc(N)cc2)no1 [Sulfamethoxazol]
one replicate
Details | fitness
B. subtilis 168 [3], first compound 0.125 µg/mL, partner 0.5 µg/mL | 0.919
B. subtilis 168 [3], first compound 0.25 µg/mL, partner 0.5 µg/mL | 0.908
B. subtilis 168 [3], first compound 0.5 µg/mL, partner 0.5 µg/mL | 0.969
B. subtilis 168 [3], first compound 1 µg/mL, partner 1 µg/mL | 0.719
B. subtilis 168 [3], first compound 1 µg/mL, partner 2 µg/mL | 0.72
B. subtilis 168 [3], first compound 1 µg/mL, partner 4 µg/mL | 0.645
S. aureus DSM 20231 [1], first compound 0.125 µg/mL, partner 1 µg/mL | 0.926
S. aureus DSM 20231 [1], first compound 0.125 µg/mL, partner 2 µg/mL | ≥ 1
S. aureus DSM 20231 [1], first compound 0.125 µg/mL, partner 4 µg/mL | ≥ 1
S. aureus DSM 20231 [1], first compound 0.25 µg/mL, partner 1 µg/mL | 0.951
S. aureus DSM 20231 [1], first compound 0.25 µg/mL, partner 2 µg/mL | ≥ 1
S. aureus DSM 20231 [1], first compound 0.25 µg/mL, partner 4 µg/mL | 0.974
S. aureus Newman [2], first compound 0.5 µg/mL, partner 8 µg/mL | 0.954
S. aureus Newman [2], first compound 1 µg/mL, partner 2 µg/mL | ≥ 1
S. aureus Newman [2], first compound 1 µg/mL, partner 4 µg/mL | 0.986
S. aureus Newman [2], first compound 1 µg/mL, partner 8 µg/mL | 0.973
S. aureus Newman [2], first compound 2 µg/mL, partner 2 µg/mL | 0.994
S. aureus Newman [2], first compound 2 µg/mL, partner 4 µg/mL | ≥ 1
S. aureus Newman [2], first compound 2 µg/mL, partner 8 µg/mL | 0.983

fitness
Details | partner 1 µg/mL | partner 2 µg/mL | partner 4 µg/mL
B. subtilis 168 [3], first compound 0.125 µg/mL | 0.893 | 0.821 | 0.938
B. subtilis 168 [3], first compound 0.25 µg/mL | 0.895 | 0.885 | 0.856
B. subtilis 168 [3], first compound 0.5 µg/mL | 0.928 | 0.814 | –
S. aureus DSM 20231 [1], first compound 0.5 µg/mL | 0.914 | ≥ 1 | ≥ 1
S. aureus DSM 20231 [1], first compound 1 µg/mL | 0.918 | 0.988 | 0.976
S. aureus DSM 20231 [1], first compound 2 µg/mL | 0.913 | 0.988 | 0.963
S. aureus Newman [2], first compound 0.125 µg/mL | 0.967 | 0.99 | ≥ 1
S. aureus Newman [2], first compound 0.25 µg/mL | 0.967 | 0.977 | ≥ 1
S. aureus Newman [2], first compound 0.5 µg/mL | 0.992 | 0.971 | ≥ 1
S. pneumoniae D39V [4], first compound 1 µg/mL | 0.932 | 0.95 | 0.964
S. pneumoniae D39V [4], first compound 2 µg/mL | 0.924 | 0.901 | 0.935
S. pneumoniae D39V [4], first compound 4 µg/mL | 0.916 | 0.938 | 0.938

Details | Bliss interaction score
B. subtilis 168 [7] | -0.0776
S. aureus DSM 20231 [5] | 0.041
S. aureus Newman [6] | 0.0337
S. pneumoniae D39V [8] | 0.0745
